Assay results from ChEMBL document CHEMBL5729264, “Bicyclic compounds” (2022).

assay: Dual-Glo Luciferase Assay: The Dual-Glo Luciferase Reagent was prepared by transferring the contents of one bottle of Dual-Glo Luciferase Buffer to one bottle of Dual-Glo Luciferase Substrate to create the Dual-Glo Luciferase Reagent. Mixing was performed by inversion until the substrate was thoroughly dissolved. After mixing, the reagent was aliquoted into 15 ml tubes. In the afternoon (24 hrs post compound treatment), the DMEM+medium in the 384 well plates were aspirated by Microplate Washer.Measuring firefly luciferase activity: 20 ul Dual-Glo Luciferase Reagent was added to the 384-well plates. The plates were protected from light to prevent interference with the assay. The plates were shaken for 1 min followed centrifuging plates at 1000 rpm for 30 seconds. After waiting at least 10 minutes, the firefly luminescence was measured by Envision.Measuring renilla luciferase activity: 20 ul Stop-Glo Reagent was added to the 384-well plates. The plates were shaken for 1 min and then centrifuged at 1000 rpm for 30 seconds. After waiting at least 10 minutes, the renilla luminescence was measured by Envision.Compound IC50 and maximum inhibition on the firefly luciferase and renilla luciferase activities were reported separately.

| Structure (SMILES) | IC50 |
| --- | --- |
| CS(=O)(=O)NC(=O)c1ccc2c(Oc3ccc(C(F)(F)F)cc3)cccc2c1 | < 100 nM |
| CC(C)NC(=O)c1ccc2c(Oc3cccc(Cl)c3)cccc2c1 | < 100 nM |
| N#CCNC(=O)c1ccc2c(Oc3ccc(C(F)(F)F)cc3)cccc2c1 | < 100 nM |
| CC(C)NC(=O)c1ccc2c(Oc3ccc(Cl)c(Cl)c3)cccc2c1 | < 100 nM |
| CC(C)NC(=O)c1ccc2c(Oc3ccc(C(F)(F)F)cc3)cccc2c1 | < 100 nM |
| C#C[C@@H](C)NC(=O)c1ccc2c(Oc3ccc(C(F)(F)F)cc3)cccc2c1 | < 100 nM |
| C[C@H](NC(=O)c1ccc2c(Oc3ccc(C(F)(F)F)cc3)cccc2c1)c1c[nH]cn1 | < 100 nM |
| C[C@H](NC(=O)c1ccc2c(Oc3ccc(C(F)(F)F)cc3)cccc2c1)c1cccc(N)n1 | in the range around 550 nM |
| N#CNC(=O)c1ccc2c(Oc3ccc(C(F)(F)F)cc3)cccc2c1 | in the range around 550 nM |
| C[C@H](NC(=O)c1ccc2c(Oc3ccc(C(F)(F)F)cc3)cccc2c1)c1ccccc1Cl | < 100 nM |
| C[C@@H](NC(=O)c1ccc2c(Oc3ccc(C(F)(F)F)cc3)cccc2c1)c1c[nH]cn1 | < 100 nM |
| C#C[C@H](C)NC(=O)c1ccc2c(Oc3ccc(C(F)(F)F)cc3)cccc2c1 | < 100 nM |
| O=C(NC(CO)c1ccccn1)c1ccc2c(Oc3ccc(C(F)(F)F)cc3)cccc2c1 (stereo not given) | < 100 nM |
| C[C@H](NC(=O)c1ccc2c(Oc3ccc(C(F)(F)F)cc3)cccc2c1)C1COC1 | < 100 nM |
| C[C@H](CO)NC(=O)c1ccc2c(Oc3ccc(C(F)(F)F)cc3)nccc2c1 | < 100 nM |
| CNCCCNC(=O)c1ccc2c(Oc3ccc(C(F)(F)F)cc3)cccc2c1 | < 100 nM |
| C[C@@H](NC(=O)c1ccc2c(Oc3ccc(C(F)(F)F)cc3)cccc2c1)c1nnn(C)n1 | in the range around 550 nM |
| C[C@H](NC(=O)c1ccc2c(Oc3ccc(C(F)(F)F)cc3)cccc2c1)c1cccc(N(C)C)n1 | in the range around 550 nM |
| C[C@@H](NC(=O)c1ccc2c(Oc3ccc(C(F)(F)F)cc3)cccc2c1)c1cccnc1N | in the range around 2000 nM |
| CS(=O)(=O)NC(=O)c1ccc2c(Oc3ccc(Cl)c(Cl)c3)cccc2c1 | < 100 nM |
| C#CCNC(=O)c1ccc2c(Oc3ccc(C(F)(F)F)cc3)cccc2c1 | < 100 nM |
| COC[C@@H](C)NC(=O)c1ccc2c(Oc3ccc(C(F)(F)F)cc3)cccc2c1 | < 100 nM |
| C[C@H](NC(=O)c1ccc2c(Oc3ccc(C(F)(F)F)cc3)cccc2c1)c1ncc[nH]1 | in the range around 550 nM |

| Structure (SMILES) | IC50 |
| --- | --- |
| C[C@H](CO)NC(=O)c1cc2cccc(Oc3ccc(C(F)(F)F)cc3)c2s1 | < 100 nM |
| CC(C)NC(=O)c1ccc2c(Oc3ccc(C(F)(F)F)cc3F)cccc2c1 | < 100 nM |
| C[C@@H](NC(=O)c1ccc2c(Oc3ccc(C(F)(F)F)cc3)cccc2c1)c1cccc(N(C)C)n1 | < 100 nM |
| C[C@@H](NC(=O)c1ccc2c(Oc3ccc(C(F)(F)F)cc3)cccc2c1)c1cn(C)cn1 | < 100 nM |
| CC#C[C@@H](C)NC(=O)c1ccc2c(Oc3ccc(C(F)(F)F)cc3)cccc2c1 | < 100 nM |
| COc1cc(Oc2ccc(C(F)(F)F)cc2)c2ncc(C(=O)N[C@H](C)c3ccccn3)cc2c1 | in the range around 550 nM |
| C[C@@H](NC(=O)c1ccc2c(Oc3ccc(C(F)(F)F)cc3)cccc2c1)c1cc(N)ccn1 | < 100 nM |
| C[C@H](NC(=O)c1ccc2c(Oc3ccc(C(F)(F)F)cc3)cccc2c1)c1nn[nH]n1 | in the range around 2000 nM |
| C[C@H](NC(=O)c1ccc2c(Oc3ccc(C(F)(F)F)cc3)cccc2c1)c1cnccn1 | in the range around 550 nM |
| CC(NC(=O)c1ccc2c(Oc3ccc(C(F)(F)F)cc3)cccc2c1)c1cc(Br)ccn1 (stereo not given) | < 100 nM |
| O=C(NC1(c2ccccc2)CC1)c1ccc2c(Oc3ccc(C(F)(F)F)cc3)cccc2c1 | < 100 nM |
| COC[C@H](C)NC(=O)c1ccc2c(Oc3ccc(C(F)(F)F)cc3)cccc2c1 | < 100 nM |
| COC[C@@H](C)NC(=O)c1cnc2c(Oc3ccc(C(F)(F)F)cc3)cc(OC)cc2c1 | < 100 nM |
| C[C@H](NC(=O)c1ccc2c(Oc3ccc(C(F)(F)F)cc3)cccc2c1)C1CCC1 | < 100 nM |
| C[C@H](NC(=O)c1ccc2c(Oc3ccc(C(F)(F)F)cc3)cccc2c1)c1ccccn1 | < 100 nM |
| CC(C)NC(=O)c1cnc2c(Oc3ccc(C(F)(F)F)cc3)cc(F)c(F)c2c1 | < 100 nM |
| CN(C#N)CCCNC(=O)c1ccc2c(Oc3ccc(C(F)(F)F)cc3)cccc2c1 | < 100 nM |
| C[C@@H](NC(=O)c1ccc2c(Oc3ccc(C(F)(F)F)cc3)cccc2c1)c1cnccn1 | < 100 nM |
| COC[C@H](C)NC(=O)c1cnc2c(Oc3ccc(C(F)(F)F)cc3)cc(OC)cc2c1 | < 100 nM |
| C[C@@H](NC(=O)c1ccc2c(Oc3ccc(C(F)(F)F)cc3)cccc2c1)c1ccccn1 | in the range around 550 nM |
| C[C@H](NC(=O)c1cnc2c(Oc3ccc(C(F)(F)F)cc3)cccc2c1)c1ccccn1 | < 100 nM |
| CS(=O)(=O)NC(=O)c1ccc2c(Oc3ccc(F)c(F)c3)cccc2c1 | < 100 nM |
| C[C@@H](NC(=O)c1ccc2c(Oc3ccc(C(F)(F)F)cc3)cccc2c1)C(N)=O | < 100 nM |

| Structure (SMILES) | IC50 |
| --- | --- |
| CNS(=O)(=O)c1ccc2c(Oc3ccc(C(F)(F)F)cc3)cccc2c1 | < 100 nM |
| C[C@H](CO)NC(=O)c1ccc2c(Oc3ccc(C(F)(F)F)cc3)cccc2c1 | < 100 nM |
| CC(C)NC(=O)c1ccc2c(Oc3ccc(F)c(F)c3)cccc2c1 | < 100 nM |
| C[C@@H](NC(=O)c1ccc2c(Oc3ccc(C(F)(F)F)cc3)cccc2c1)c1cccc(N)n1 | < 100 nM |
| C[C@@H](NC(=O)c1ccc2c(Oc3ccc(C(F)(F)F)cc3)cccc2c1)C1COC1 | < 100 nM |
| CC(C)NC(=O)c1ccc2c(Oc3ccc(Cl)cc3)cccc2c1 | < 100 nM |
| O=C(NC(CO)c1ccccn1)c1cnc2c(Oc3ccc(C(F)(F)F)cc3)cccc2c1 (stereo not given) | < 100 nM |
| C[C@@H](NC(=O)c1ccc2c(Oc3ccc(C(F)(F)F)cc3)cccc2c1)c1cc(N(C)C)ccn1 | in the range around 2000 nM |
| C[C@@H](NC(=O)c1ccc2c(Oc3ccc(C(F)(F)F)cc3)cccc2c1)C1CCC1 | < 100 nM |
| C[C@H](NC(=O)c1ccc2c(Oc3ccc(C(F)(F)F)cc3)cccc2c1)c1cn(C)cn1 | in the range around 550 nM |
| CNCCNC(=O)c1ccc2c(Oc3ccc(C(F)(F)F)cc3)cccc2c1 | in the range around 550 nM |
| C[C@H](NC(=O)c1ccc2c(Oc3ccc(C(F)(F)F)cc3)cccc2c1)C(N)=O | < 100 nM |
| C#CCCNC(=O)c1ccc2c(Oc3ccc(C(F)(F)F)cc3)cccc2c1 | < 100 nM |
| CC(C)NC(=O)c1ccc2c(Oc3ccc(C(F)(F)F)cc3)cccc2n1 | < 100 nM |
| CC(C)NC(=O)c1ccc2c(Oc3ccc(C(F)(F)F)cc3)cncc2c1 | < 100 nM |
| CC(C)NC(=O)c1ccc2c(Oc3ccc(C(F)(F)F)cc3)ccnc2c1 | in the range around 550 nM |
| C[C@H](NC(=O)c1ccc2c(Oc3ccc(C(F)(F)F)cc3)cccc2c1)c1cc(N)ccn1 | in the range around 550 nM |
| CC(C)NC(=O)c1cnc2c(Oc3ccc(C(F)(F)F)cc3)cccc2c1 | < 100 nM |
| CC(C)NC(=O)c1ccc2c(Oc3ccc(C(F)(F)F)cc3)nccc2c1 | < 100 nM |
| COC[C@H](C)NC(=O)c1cnc2c(Oc3ccc(C(F)(F)F)cc3)cccc2c1 | < 100 nM |
| CN(C#N)CCNC(=O)c1ccc2c(Oc3ccc(C(F)(F)F)cc3)cccc2c1 | < 100 nM |
| O=C(NC(CO)Cc1ccccn1)c1ccc2c(Oc3ccc(C(F)(F)F)cc3)cccc2c1 (stereo not given) | < 100 nM |
| CNS(=O)(=O)c1ccc2c(Oc3ccc(Cl)c(Cl)c3)cccc2c1 | < 100 nM |

| Structure (SMILES) | IC50 |
| --- | --- |
| CC(C)NC(=O)c1cc2cccc(Oc3ccc(C(F)(F)F)cc3)c2s1 | < 100 nM |
| C[C@H](NC(=O)c1ccc2c(Oc3ccc(C(F)(F)F)cc3)cccc2c1)c1nnnn1C | in the range around 550 nM |
| N#CCCNC(=O)c1ccc2c(Oc3ccc(C(F)(F)F)cc3)cccc2c1 | < 100 nM |
| C[C@H](NC(=O)c1ccc2c(Oc3ccc(C(F)(F)F)cc3)cccc2c1)c1nnn(C)n1 | < 100 nM |
| O=C(NC1(c2ccccn2)CC1)c1ccc2c(Oc3ccc(C(F)(F)F)cc3)cccc2c1 | < 100 nM |
| C[C@H](NC(=O)c1ccc2c(Oc3ccc(C(F)(F)F)cc3)cccc2c1)c1nccn1C | in the range around 550 nM |
| C[C@H](NC(=O)c1ccc2c(Oc3ccc(C(F)(F)F)cc3)cccc2c1)c1cc(N(C)C)ccn1 | in the range around 550 nM |
| C[C@@H](NC(=O)c1ccc2c(Oc3ccc(C(F)(F)F)cc3)cccc2c1)c1ncc[nH]1 | < 100 nM |
| COC[C@@H](C)NC(=O)c1cnc2c(Oc3ccc(C(F)(F)F)cc3)cccc2c1 | in the range around 550 nM |
| O=C(NC1(c2ccccc2)COC1)c1ccc2c(Oc3ccc(C(F)(F)F)cc3)cccc2c1 | < 100 nM |
| C[C@@H](NC(=O)c1ccc2c(Oc3ccc(C(F)(F)F)cc3)cccc2c1)C1CC1 | < 100 nM |
| COc1cc(Oc2ccc(C(F)(F)F)cc2)c2ncc(C(=O)N[C@@H](C)c3ccccn3)cc2c1 | < 100 nM |
| CC#C[C@H](C)NC(=O)c1ccc2c(Oc3ccc(C(F)(F)F)cc3)cccc2c1 | < 100 nM |
| C[C@@H](NC(=O)c1cnc2c(Oc3ccc(C(F)(F)F)cc3)cccc2c1)c1ccccn1 | in the range around 550 nM |
| C[C@@H](NC(=O)c1ccc2c(Oc3ccc(C(F)(F)F)cc3)cccc2c1)c1nnnn1C | in the range around 550 nM |
| C[C@@H](NC(=O)c1ccc2c(Oc3ccc(C(F)(F)F)cc3)cccc2c1)c1cccc2cn[nH]c12 | < 100 nM |
| C[C@H](NC(=O)c1ccc2c(Oc3ccc(C(F)(F)F)cc3)cccc2c1)C1CC1 | < 100 nM |
| C[C@H](NC(=O)c1ccc2c(Oc3ccc(C(F)(F)F)cc3)cccc2c1)c1cccnc1N | < 100 nM |
| CC(C)NC(=O)c1ccc2c(Oc3ccc(C(F)(F)F)cc3Cl)cccc2c1 | < 100 nM |
| C[C@@H](NC(=O)c1ccc2c(Oc3ccc(C(F)(F)F)cc3)cccc2c1)c1nccn1C | in the range around 550 nM |
| C[C@H](CO)NC(=O)c1cnc2c(Oc3ccc(C(F)(F)F)cc3)cccc2c1 | < 100 nM |
